Laboratory results as given in patent publication US10072026B2, “Crystalline form of 3-((1R,3s,5S)-3-((7-((5-methyl-1H-pyrazol-3-yl)amino)-1,6-naphthyridin-5-yl)amino)-8-azabicyclo[3.2.1]octan-8-yl)propanenitrile” (priority 2015, dated 2018).
Where two headings read alike, the source gives them in different places.

Experiments:
[1] = system: IL-13 induced STAT6 phosphorylation in BEAS-2B human lung epithelial cells; experiment: AlphaScreen cellular JAK potency assay, BEAS-2B; details: for BEAS2B pIC50: IL-13 induced STAT6 phosphorylation, BEAS-2B cells; for IC50: Homo sapiens, BEAS-2B, read-out: BEAS2B pIC50 (converted)
[2] = system: oxazolone-induced colitis; experiment: Mouse model of oxazolone-induced colitis; format: in vivo, BALB/C mice; details: mouse, PO, 1, 3, and/or 10 mg/kg BID
Procedure: Assay 7: Mouse Model of Oxazalone-Induced Colitis
Oxazolone-induced colitis is an experimental model that has a histological resemblance to human ulcerative colitis (Heller et al. Immunology, 2002, 17, 629-638). Adult BALB/C mice from Harlan were used in the assay. On day 1, animals were lightly anesthetized with isoflurane and the hairs between the shoulder were carefully removed before oxazolone (4%, 150 μL, 4:1 acetone:olive oil formulation) or vehicle solution was slowly applied for skin sensitization. Seven days after skin sensitization, the mice were fasted overnight, anesthetized with isoflurane inhalation, and a 1 mL syringe equipped with a 3.5-F catheter, filled with oxazolone solution, was inserted carefully about 4 cm into the colon of the mouse. Following insertion, 50 μL of the oxazolone solution (1%, 1:1 ethanol:water formulation) was injected very slowly (over 30 sec using an injection pump) into the colon. The catheter was removed and the mice were held vertically (head down) for 2 min to ensure that the entire oxazolone solution remained inside the colon. Drug treatment (PO, BID or TID) or vehicle was initiated a day prior to the oxazolone intrarectal (IR) challenge. Two-day post oxazolone intrarectal challenge, the Disease Activity Index (DAI) was assessed by treatment-blinded experimenters for each mouse according to the criteria score: stool consistency score (0, normal; 2, loose; 4, diarrhea), gross bleeding score (0, absence; 2, blood tinged; 4, presence), and weight loss score (0, none; 1, 1%-5%; 2, 5%-10%; 3, 10%-20%; 4, more than 20%); DAI=average of (stool consistency score+gross bleeding score+weight loss score).
Selected compounds of the invention were tested in the assay. Efficacy in the model is evidenced by a decrease in DAI score as compared with the score from vehicle treated animals.

[3] = system: IL-4 induced STAT6 phosphorylation in THP-1 human monocytic cells; experiment: Cellular JAK potency assay, THP-1; details: for THP-1 IL4 pIC50: IL-4 induced STAT6 phosphorylation, THP-1 cells; for IC50: Homo sapiens, THP-1, read-out: THP-1 IL4 pIC50 (converted)
[4] = target: Tyk2 (Homo sapiens (Human), UniProt P29597); experiment: LanthaScreen JAK biochemical assay (Tyk2)
Sequence of Tyk2 (P29597 whole entry): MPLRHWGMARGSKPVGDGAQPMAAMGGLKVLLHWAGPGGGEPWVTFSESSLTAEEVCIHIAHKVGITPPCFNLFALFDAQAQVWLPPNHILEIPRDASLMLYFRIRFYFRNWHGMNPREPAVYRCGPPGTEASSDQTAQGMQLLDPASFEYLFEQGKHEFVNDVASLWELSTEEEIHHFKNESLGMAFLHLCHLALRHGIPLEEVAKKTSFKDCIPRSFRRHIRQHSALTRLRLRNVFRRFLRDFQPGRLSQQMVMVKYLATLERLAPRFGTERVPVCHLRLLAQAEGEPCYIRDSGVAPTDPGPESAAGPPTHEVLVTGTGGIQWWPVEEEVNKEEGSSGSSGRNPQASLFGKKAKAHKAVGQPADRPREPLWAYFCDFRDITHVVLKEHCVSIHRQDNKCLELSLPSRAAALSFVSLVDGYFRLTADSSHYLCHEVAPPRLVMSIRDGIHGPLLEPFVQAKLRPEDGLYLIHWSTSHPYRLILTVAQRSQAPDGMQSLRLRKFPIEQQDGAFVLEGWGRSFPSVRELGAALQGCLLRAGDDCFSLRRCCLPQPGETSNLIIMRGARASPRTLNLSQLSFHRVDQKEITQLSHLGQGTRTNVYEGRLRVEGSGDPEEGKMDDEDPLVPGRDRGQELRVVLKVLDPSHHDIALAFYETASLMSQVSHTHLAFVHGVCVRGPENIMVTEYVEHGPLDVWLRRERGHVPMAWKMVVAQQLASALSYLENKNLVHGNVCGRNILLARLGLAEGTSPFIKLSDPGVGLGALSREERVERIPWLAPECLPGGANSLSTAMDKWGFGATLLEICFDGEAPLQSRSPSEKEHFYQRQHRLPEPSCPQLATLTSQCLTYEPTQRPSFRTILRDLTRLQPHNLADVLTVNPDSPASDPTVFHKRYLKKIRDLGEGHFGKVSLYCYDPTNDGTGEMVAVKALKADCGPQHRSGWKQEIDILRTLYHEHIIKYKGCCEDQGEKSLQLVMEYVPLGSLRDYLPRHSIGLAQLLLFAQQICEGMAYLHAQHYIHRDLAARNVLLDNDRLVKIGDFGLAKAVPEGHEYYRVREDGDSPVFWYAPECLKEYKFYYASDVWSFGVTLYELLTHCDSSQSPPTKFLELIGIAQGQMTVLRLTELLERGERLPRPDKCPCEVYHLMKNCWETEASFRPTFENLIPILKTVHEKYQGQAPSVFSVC

[5] = target: JAK2 (Homo sapiens (Human), UniProt O60674); experiment: LanthaScreen JAK biochemical assay (JAK2)
Sequence of JAK2 (O60674 whole entry): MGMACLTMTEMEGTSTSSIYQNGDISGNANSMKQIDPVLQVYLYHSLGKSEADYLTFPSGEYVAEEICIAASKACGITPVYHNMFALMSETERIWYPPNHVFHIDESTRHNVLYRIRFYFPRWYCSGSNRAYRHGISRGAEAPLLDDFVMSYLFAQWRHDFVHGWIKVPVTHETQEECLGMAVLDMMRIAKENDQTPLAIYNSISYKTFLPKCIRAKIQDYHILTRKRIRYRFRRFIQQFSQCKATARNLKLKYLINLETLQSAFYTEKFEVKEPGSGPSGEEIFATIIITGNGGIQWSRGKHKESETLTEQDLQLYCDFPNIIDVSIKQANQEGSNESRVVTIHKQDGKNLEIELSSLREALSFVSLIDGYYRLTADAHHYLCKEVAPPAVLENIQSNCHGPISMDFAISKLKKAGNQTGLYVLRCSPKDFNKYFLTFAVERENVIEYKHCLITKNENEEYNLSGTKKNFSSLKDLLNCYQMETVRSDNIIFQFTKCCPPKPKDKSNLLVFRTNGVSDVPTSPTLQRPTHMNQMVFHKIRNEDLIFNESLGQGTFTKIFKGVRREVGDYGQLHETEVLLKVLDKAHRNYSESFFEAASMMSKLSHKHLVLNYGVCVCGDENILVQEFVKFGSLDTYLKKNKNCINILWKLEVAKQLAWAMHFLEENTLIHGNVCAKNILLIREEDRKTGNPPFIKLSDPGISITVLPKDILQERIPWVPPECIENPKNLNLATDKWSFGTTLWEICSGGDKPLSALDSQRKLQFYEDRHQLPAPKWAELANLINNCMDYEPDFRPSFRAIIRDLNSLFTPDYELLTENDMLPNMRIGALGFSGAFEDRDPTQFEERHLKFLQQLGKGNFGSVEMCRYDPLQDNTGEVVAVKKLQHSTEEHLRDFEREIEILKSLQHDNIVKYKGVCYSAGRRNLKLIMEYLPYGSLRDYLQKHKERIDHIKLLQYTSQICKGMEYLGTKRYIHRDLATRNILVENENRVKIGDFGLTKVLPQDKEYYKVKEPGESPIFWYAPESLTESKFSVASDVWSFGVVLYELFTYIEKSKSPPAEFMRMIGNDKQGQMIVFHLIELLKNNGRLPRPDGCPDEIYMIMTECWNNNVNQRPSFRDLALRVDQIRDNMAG

[6] = target: JAK1 (Homo sapiens (Human), UniProt P23458); experiment: LanthaScreen JAK biochemical assay (JAK1)
Sequence of JAK1 (P23458 whole entry): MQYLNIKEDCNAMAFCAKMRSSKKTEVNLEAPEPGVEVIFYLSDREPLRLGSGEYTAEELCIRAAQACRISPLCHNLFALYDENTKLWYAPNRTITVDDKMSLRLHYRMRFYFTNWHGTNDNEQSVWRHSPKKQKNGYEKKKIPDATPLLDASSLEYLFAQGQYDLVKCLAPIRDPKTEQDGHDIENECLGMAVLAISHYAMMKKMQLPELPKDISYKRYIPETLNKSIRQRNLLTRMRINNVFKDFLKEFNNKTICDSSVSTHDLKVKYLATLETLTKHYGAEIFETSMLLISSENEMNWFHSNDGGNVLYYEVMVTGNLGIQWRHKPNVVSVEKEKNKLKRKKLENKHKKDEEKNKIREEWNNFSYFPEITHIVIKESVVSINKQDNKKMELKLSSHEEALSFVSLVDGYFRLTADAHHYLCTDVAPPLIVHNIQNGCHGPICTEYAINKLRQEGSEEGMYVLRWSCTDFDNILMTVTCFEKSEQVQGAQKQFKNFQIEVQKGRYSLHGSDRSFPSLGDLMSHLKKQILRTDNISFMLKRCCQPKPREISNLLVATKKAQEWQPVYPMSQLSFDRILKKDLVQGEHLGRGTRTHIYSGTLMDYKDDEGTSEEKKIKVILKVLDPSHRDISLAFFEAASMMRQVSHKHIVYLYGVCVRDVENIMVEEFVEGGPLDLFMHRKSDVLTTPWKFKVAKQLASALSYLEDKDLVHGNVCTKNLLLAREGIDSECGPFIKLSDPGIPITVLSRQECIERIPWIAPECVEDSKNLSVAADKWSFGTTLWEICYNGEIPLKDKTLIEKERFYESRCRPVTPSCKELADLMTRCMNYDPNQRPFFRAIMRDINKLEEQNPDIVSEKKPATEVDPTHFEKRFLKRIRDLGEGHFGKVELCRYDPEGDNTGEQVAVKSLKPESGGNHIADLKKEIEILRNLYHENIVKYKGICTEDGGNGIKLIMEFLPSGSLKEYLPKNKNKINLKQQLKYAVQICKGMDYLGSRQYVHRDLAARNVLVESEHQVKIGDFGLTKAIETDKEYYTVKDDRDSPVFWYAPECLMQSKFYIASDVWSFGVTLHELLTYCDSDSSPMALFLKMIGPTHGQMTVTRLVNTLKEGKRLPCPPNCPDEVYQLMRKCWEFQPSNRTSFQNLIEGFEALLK

[7] = target: JAK3 (Homo sapiens (Human), UniProt P52333); experiment: LanthaScreen JAK biochemical assay (JAK3)
[8] = in vivo; design: species or system Sprague Dawley rats; details: Sprague Dawley, rat, po, 5 mg/kg
Procedure: Assay 5: Colon Pharmacokinetics in Rats
Test compounds were individually formulated in 0.5% methyl-cellulose in water and dosed via oral gavage at 5 mg/kg to Sprague Dawley rats. At various time points (typically 1, 2, 4, 6, 24 hr) post dosing, blood samples were removed via cardiac puncture and intact colons were excised from the rats. Blood samples were centrifuged at 1500×g for 15 min to collect plasma. Colons were washed with ice cold phosphate buffered saline (PBS), weighed, and homogenized at a dilution of 1:10 in PBS. Plasma and colon levels of test compound were determined by LC-MS analysis against analytical standards constructed into a standard curve in the test matrix. A colon to plasma ratio was determined as the ratio of the colon AUC to the plasma AUC in μg hr/g.

[9] = Determination of absorption in cannulated rats; format: in vivo; details: Sprague Dawley rats, oral vs IV; for bioavailability: rat, plasma (jugular vein), jugular vein, read-out: oral bioavailability (F %)
Procedure: Drug levels were determined using an LC-MS-MS method. The resulting drug levels were used to compute the IV pharmacokinetic parameters: AUC IV and Dose IV. (2) Rats that have been cannulated in their portal vein (PV) and also in their jugular vein (JV) were dosed orally with test compound. Following oral dosing, plasma samples were typically collected from 0-6 hr from both the portal vein and the jugular vein. Drug levels were determined using an LC-MS-MS method. The resulting drug levels were used to compute the following pharmacokinetic parameters: AUC PO PV, AUC PO JV, and Dose PO. Using data derived from the above studies, the oral bioavailability F %, and the quantities Fa% and Fh% were calculated from the following formulas: F %=(AUC PO JV/AUC IV)*(Dose IV/Dose PO)*100 Fa%=(AUC PO PV/AUC IV)*(Dose IV/Dose PO)*100 Fh%=AUC PO JV/AUC PO PV where: AUC PO JV=Area under the curve following oral dose and plasma collected from the jugular vein AUC PO PV=Area under the curve following oral dose and plasma collected from the portal vein AUC IV=Area under the curve following an intravenous dose Dose IV=Intravenous Dose in mg/kg Dose PO=Oral Dose in mg/kg

| SMILES | BEAS2B pIC50 [1] | decrease in DAI score as compared with vehicle treated animals [2] | THP-1 IL4 pIC50 [3] | Tyk 2 (pKi) [4] | JAK 2 (pKi) [5] | JAK 1 (pKi) [6] | JAK 3 (pKi) [7] | Kp [8] | IC50 [1] [nM] | IC50 [3] [nM] | Ki [5] [nM] | Ki ([6]; read-out: JAK 1 (pKi) (converted)) [nM] | absorption at the portal vein (Fa%) [9] | bioavailability [9] [%] | Ki ([5]; read-out: JAK 2 (pKi) (converted)) [nM] | Ki [6] [nM] |
| --- | --- | --- | --- | --- | --- | --- | --- | --- | --- | --- | --- | --- | --- | --- | --- | --- |
| Cc1cc(Nc2cc3ncccc3c(NC3CC4CCCC(C3)N4C(=O)C(C)O)n2)n[nH]1 (centres unmarked) [Example 2-16] | B (B represents a pEC50 value between 6.7 and 7.5 (EC50 between 200 nM and 32 nM)) | did not exhibit a statistically significant decrease | B (B represents a pEC50 value between 6.7 and 7.5 (EC50 between 200 nM and 32 nM)) | B (B represents a pKi value between 9 and 10 (Ki between 1 nM and 0.1 nM)) | B (B represents a pKi value between 9 and 10 (Ki between 1 nM and 0.1 nM)) | B (B represents a pKi value between 9 and 10 (Ki between 1 nM and 0.1 nM)) | C (C represents a pKi value between 7 and 9 (Ki between 100 nM and 1 nM)) |  |  |  |  |  |  |  |  |  |
| Cc1cc(Nc2cc3ncccc3c(N[C@@H]3C[C@H]4CC[C@@H](C3)N4S(=O)(=O)CC(C)C)n2)n[nH]1 [Example 4-3] | A (A represents a pEC50 value≥7.5 (EC50≤32 nM)) | did not exhibit a statistically significant decrease | A (A represents a pEC50 value≥7.5 (EC50≤32 nM)) | B (B represents a pKi value between 9 and 10 (Ki between 1 nM and 0.1 nM)) | B (B represents a pKi value between 9 and 10 (Ki between 1 nM and 0.1 nM)) | B (B represents a pKi value between 9 and 10 (Ki between 1 nM and 0.1 nM)) | C (C represents a pKi value between 7 and 9 (Ki between 100 nM and 1 nM)) |  |  |  |  |  |  |  |  |  |
| Cc1cc(Nc2cc3ncccc3c(N[C@@H]3C[C@H]4CC[C@@H](C3)N4CCF)n2)n[nH]1 [Example 2, N^5-((1R,3s,5S)-8-(2-fluoroethyl)-8-azabicyclo[3.2.1]octan-3-yl)-N^7-(5-methyl-1H-pyrazol-3-yl)-1,6-naphthyridine-5,7-diamine] |  | statistically significant decrease |  |  |  |  |  | > 450 | 31.6 to 200 | 31.6 to 200 | 0.1 to 1 | 0.1 to 1 |  |  |  |  |
| Cc1cc(Nc2cc3ncccc3c(N[C@@H]3C[C@H]4CCC[C@@H](C3)N4C(=O)C(C)(C)CO)n2)n[nH]1 [Example 2-22] | A (A represents a pEC50 value≥7.5 (EC50≤32 nM)) | did not exhibit a statistically significant decrease | B (B represents a pEC50 value between 6.7 and 7.5 (EC50 between 200 nM and 32 nM)) | B (B represents a pKi value between 9 and 10 (Ki between 1 nM and 0.1 nM)) | B (B represents a pKi value between 9 and 10 (Ki between 1 nM and 0.1 nM)) | B (B represents a pKi value between 9 and 10 (Ki between 1 nM and 0.1 nM)) | C (C represents a pKi value between 7 and 9 (Ki between 100 nM and 1 nM)) |  |  |  |  |  |  |  |  |  |
| CCOCC(=O)N1[C@@H]2CCC[C@H]1C[C@H](Nc1nc(Nc3cc(C)[nH]n3)cc3ncccc13)C2 [Example 2-17] | A (A represents a pEC50 value≥7.5 (EC50≤32 nM)) | did not exhibit a statistically significant decrease | B (B represents a pEC50 value between 6.7 and 7.5 (EC50 between 200 nM and 32 nM)) |  | B (B represents a pKi value between 9 and 10 (Ki between 1 nM and 0.1 nM)) | B (B represents a pKi value between 9 and 10 (Ki between 1 nM and 0.1 nM)) | C (C represents a pKi value between 7 and 9 (Ki between 100 nM and 1 nM)) |  |  |  |  |  |  |  |  |  |
| CCC(C)C(=O)N1C2CCC1CC(Nc1nc(Nc3cc(C)[nH]n3)cc3ncccc13)C2 (centres unmarked) [Example 2-6] | A (A represents a pEC50 value≥7.5 (EC50≤32 nM)) | did not exhibit a statistically significant decrease | B (B represents a pEC50 value between 6.7 and 7.5 (EC50 between 200 nM and 32 nM)) | C (C represents a pKi value between 7 and 9 (Ki between 100 nM and 1 nM)) | B (B represents a pKi value between 9 and 10 (Ki between 1 nM and 0.1 nM)) | B (B represents a pKi value between 9 and 10 (Ki between 1 nM and 0.1 nM)) | C (C represents a pKi value between 7 and 9 (Ki between 100 nM and 1 nM)) |  |  |  |  |  |  |  |  |  |
| COCCS(=O)(=O)N1[C@@H]2CCC[C@H]1C[C@H](Nc1nc(Nc3cc(C)[nH]n3)cc3ncccc13)C2 [Example 4-19] | A (A represents a pEC50 value≥7.5 (EC50≤32 nM)) | did not exhibit a statistically significant decrease | A (A represents a pEC50 value≥7.5 (EC50≤32 nM)) | B (B represents a pKi value between 9 and 10 (Ki between 1 nM and 0.1 nM)) |  |  | C (C represents a pKi value between 7 and 9 (Ki between 100 nM and 1 nM)) |  |  |  |  |  |  |  |  |  |
| Cc1cc(Nc2cc3nc(CO)ccc3c(N[C@@H]3C[C@H]4CC[C@@H](C3)N4C(=O)OCC(C)C)n2)n[nH]1 [Example 12, Isobutyl(1R,3s,5S)-3-((2-(hydroxymethyl)-7-((5-methyl-1H-pyrazol-3-yl)amino)-1,6-naphthyridin-5-yl)amino)-8-azabicyclo[3.2.1]octane-8-carboxylate] |  | statistically significant decrease |  |  |  |  |  |  | 31.6 to 200 | 31.6 to 200 |  |  | less than 10% | < 5 | 0.1 to 1 | 0.1 to 1 |
| Cc1cc(Nc2cc3ncccc3c(N[C@@H]3C[C@H]4CC[C@@H](C3)N4C(=O)C(F)F)n2)n[nH]1 [Example 5, 2,2-difluoro-1-((1R,3s,5S)-3-((7-((5-methyl-1H-pyrazol-3-yl)amino)-1,6-naphthyridin-5-yl)amino)-8-azabicyclo[3.2.1]octan-8-yl)ethan-1-one] |  | statistically significant decrease |  |  |  |  |  | > 450 |  |  |  |  |  |  |  |  |
| Cc1cc(Nc2cc3ncccc3c(N[C@@H]3C[C@H]4CCC[C@@H](C3)N4S(=O)(=O)c3cccnc3)n2)n[nH]1 [Example 8, N^7-(5-methyl-1H-pyrazol-3-yl)-N^5-((1R,3s,5S)-9-(pyridin-3-ylsulfonyl)-9-azabicyclo[3.3.1]nonan-3-yl)-1,6-naphthyridine-5,7-diamine] |  | statistically significant decrease |  |  |  |  |  |  | < 31.6 | < 31.6 |  |  | less than 10% | < 5 |  |  |
